Measurements taken from patent US4563527A, “Amidine compounds” (Torii & Co., Ltd., priority 1984, dated 1986).
Like-named read-outs stand apart in the source and are kept apart here.

What was measured:
[1] = molecular target: T1, Trypsin (Bos taurus, UniProt P00760); experiment: Anti-trypsin activity (hydrolysis of TAME); type: biochemical; conditions: molar concentration inhibiting 50% of TAME hydrolysis; read-out: ID50 trypsin
T1 sequence (P00760 24-246): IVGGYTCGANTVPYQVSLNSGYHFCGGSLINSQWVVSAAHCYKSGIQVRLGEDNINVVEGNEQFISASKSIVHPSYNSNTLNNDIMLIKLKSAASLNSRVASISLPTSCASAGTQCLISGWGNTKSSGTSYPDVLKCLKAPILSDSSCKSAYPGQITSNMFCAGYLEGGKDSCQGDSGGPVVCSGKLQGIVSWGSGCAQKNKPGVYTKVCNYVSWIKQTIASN
Method: (§1) The anti-trypsin, anti-plasmin, anti-kallikrein and anti-thrombin activities were determined according to the method of Muramatsu et al. [M. Muramatus, T. Onishi, S. Makino, Y. Hayashi and S. Fujii, J. of Biochem., 58, 214 (1965)]. The data summarized in Table 1 are expressed in terms of molar concentration (ID50) of the test compound which inhibits 50% of the activity of each enzyme to hydrolyze TAME (tosylalginine methyl ester). The compound No. corresponds to the compound number shown in Examples.

[2] = molecular target: Plasmin (Homo sapiens, UniProt P00747); experiment: Anti-plasmin activity (hydrolysis of TAME); type: biochemical; conditions: molar concentration inhibiting 50% of TAME hydrolysis; read-out: ID50 plasmin
Sequence of Plasmin (P00747 581-810 limits assumed, species assumed): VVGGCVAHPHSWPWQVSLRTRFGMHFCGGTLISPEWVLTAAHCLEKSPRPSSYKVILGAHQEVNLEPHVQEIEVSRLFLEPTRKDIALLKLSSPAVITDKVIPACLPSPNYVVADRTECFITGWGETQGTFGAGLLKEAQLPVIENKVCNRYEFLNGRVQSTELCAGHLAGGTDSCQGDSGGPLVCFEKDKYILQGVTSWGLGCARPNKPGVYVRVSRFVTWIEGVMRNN
Sequence of Plasmin (P00747 97-580 partner limits assumed, species assumed): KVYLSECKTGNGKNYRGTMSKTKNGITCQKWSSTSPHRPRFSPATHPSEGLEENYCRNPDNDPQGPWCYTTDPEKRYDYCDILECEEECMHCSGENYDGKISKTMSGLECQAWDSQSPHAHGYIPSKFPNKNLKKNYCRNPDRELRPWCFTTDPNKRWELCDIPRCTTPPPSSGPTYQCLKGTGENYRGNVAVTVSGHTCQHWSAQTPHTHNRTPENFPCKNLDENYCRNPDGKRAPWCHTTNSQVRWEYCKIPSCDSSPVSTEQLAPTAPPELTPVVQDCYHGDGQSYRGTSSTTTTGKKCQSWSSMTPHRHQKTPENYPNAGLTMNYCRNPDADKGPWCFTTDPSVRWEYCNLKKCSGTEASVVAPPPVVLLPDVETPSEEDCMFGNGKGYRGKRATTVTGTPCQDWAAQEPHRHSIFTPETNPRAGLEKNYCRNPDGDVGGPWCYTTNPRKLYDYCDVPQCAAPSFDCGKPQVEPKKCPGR
Method: The anti-trypsin, anti-plasmin, anti-kallikrein and anti-thrombin activities were determined according to the method of Muramatsu et al. [M. Muramatus, T. Onishi, S. Makino, Y. Hayashi and S. Fujii, J. of Biochem., 58, 214 (1965)]. […] The compound No. corresponds to the compound number shown in Examples.

[3] = test system: Kallikrein; experiment: Anti-kallikrein activity (hydrolysis of TAME); type: biochemical; conditions: molar concentration inhibiting 50% of TAME hydrolysis; read-out: ID50 kallikrein
Method: as §1

[4] = molecular target: Thrombin (Homo sapiens, UniProt P00734); experiment: biochemical; conditions: read-out: ID50 thrombin
[5] = molecular target: T2, C1r (Homo sapiens, UniProt P00736); experiment: biochemical; conditions: molar concentration inhibiting 50% of AAME hydrolysis; read-out: ID50 C1r (Anti-C1 activity)
T2 sequence (P00736 464-705 limits assumed): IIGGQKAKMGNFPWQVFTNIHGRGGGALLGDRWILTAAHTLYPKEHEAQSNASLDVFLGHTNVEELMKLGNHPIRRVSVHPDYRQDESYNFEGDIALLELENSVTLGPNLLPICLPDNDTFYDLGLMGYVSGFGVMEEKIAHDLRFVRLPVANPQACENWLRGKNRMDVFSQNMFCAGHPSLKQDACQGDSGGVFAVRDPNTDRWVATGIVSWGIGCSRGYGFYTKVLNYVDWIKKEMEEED
T2 sequence (P00736 18-463 partner limits assumed): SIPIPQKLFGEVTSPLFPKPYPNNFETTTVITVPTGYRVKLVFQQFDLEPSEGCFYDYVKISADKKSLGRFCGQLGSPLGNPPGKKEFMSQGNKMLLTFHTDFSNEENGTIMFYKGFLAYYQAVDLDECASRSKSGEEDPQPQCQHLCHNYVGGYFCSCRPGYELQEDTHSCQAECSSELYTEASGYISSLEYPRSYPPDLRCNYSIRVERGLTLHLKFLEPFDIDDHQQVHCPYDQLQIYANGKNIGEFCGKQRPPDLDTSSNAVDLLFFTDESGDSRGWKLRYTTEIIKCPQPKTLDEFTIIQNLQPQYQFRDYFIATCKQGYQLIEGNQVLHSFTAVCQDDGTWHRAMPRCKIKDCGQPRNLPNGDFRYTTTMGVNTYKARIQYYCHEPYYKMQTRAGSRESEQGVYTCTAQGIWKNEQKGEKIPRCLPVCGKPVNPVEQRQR

[6] = molecular target: T3, C1s (Homo sapiens, UniProt P09871); experiment: Anti-C1s activity (hydrolysis of ATEE); type: biochemical; conditions: molar concentration inhibiting 50% of ATEE hydrolysis; read-out: ID50 C1s (Anti-C1 activity)
T3 sequence (P09871 438-688 limits assumed): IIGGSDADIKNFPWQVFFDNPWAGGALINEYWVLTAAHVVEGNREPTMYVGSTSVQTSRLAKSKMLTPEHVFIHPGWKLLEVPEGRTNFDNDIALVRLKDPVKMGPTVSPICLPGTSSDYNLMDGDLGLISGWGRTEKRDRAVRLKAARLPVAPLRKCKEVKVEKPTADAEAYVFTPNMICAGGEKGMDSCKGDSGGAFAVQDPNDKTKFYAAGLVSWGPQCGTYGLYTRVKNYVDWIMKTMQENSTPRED
T3 sequence (P09871 16-437 partner limits assumed): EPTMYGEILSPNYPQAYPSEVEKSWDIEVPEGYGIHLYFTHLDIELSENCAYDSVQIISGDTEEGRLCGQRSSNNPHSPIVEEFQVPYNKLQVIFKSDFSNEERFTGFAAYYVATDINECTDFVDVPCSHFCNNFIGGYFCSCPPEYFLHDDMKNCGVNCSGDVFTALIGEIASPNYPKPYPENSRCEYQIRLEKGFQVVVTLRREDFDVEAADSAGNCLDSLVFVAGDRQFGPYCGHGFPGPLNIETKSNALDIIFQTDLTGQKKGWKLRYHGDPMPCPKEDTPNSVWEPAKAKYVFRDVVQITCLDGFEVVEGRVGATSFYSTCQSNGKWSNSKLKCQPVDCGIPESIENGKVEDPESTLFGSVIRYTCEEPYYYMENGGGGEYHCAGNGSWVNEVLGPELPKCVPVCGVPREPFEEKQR
Method: The anti-C1 esterase (C1r, C1s) activity was determined according to the method of Okamura et al. [K. Okamura, M. Muramatsu and B. Fujii, Biochem. Biophys. Acta, 295, 252-257 (1973)]. The inhibition of complement mediated hemolysis was determined according to the method of Baker et al. [B. R. Baker and E. H. Erickson, J. Med. Chem. 12, 408-414 (1969)]. The figures in Table 2 have the following meanings:
C1s: Molar concentration of the test compound which inhibits 50% of the ability of C1s to hydrolyse ATEE (acetyltyrosin ethyl ester) (ID50).

[7] = test system: complement; experiment: Inhibition of complement mediated hemolysis; type: cell-based
Method: The complement mediated hemolysis is widely used as a means to determine the titration of complement. The principle of this method is based on the fact that hemolysis is caused by the activation of complement, when the latter is added to a complex (immune complex) of erythrocytes and the antibody thereof. The degree of hemolysis varies in proportion to the amount of complement added. Therefore, when a known amount of complement admixed with a C1 esterase inhibitor is used, the hemolysis must be suppressed in proportion to the inhibitory activity.
The anti-C1 esterase (C1r, C1s) activity was determined according to the method of Okamura et al. [K. Okamura, M. Muramatsu and B. Fujii, Biochem. Biophys. […] The figures in Table 2 have the following meanings: […]

[8] = molar concentration inhibiting 50% of TAME hydrolysis

Compound	IC50 [1] [nM]	IC50 [2] [nM]	IC50 [3] [nM]	IC50 [4, 8] [nM]	IC50 [5] [nM]	IC50 [6] [nM]	Inhibition of complement mediated hemolysis (%) ([7]; 1 × 10^-5)	Inhibition of complement mediated hemolysis (%) ([7]; 1 × 10^-6)	Inhibition of complement mediated hemolysis (%) ([7]; 1 × 10^-7)	IC50 [4] [nM]
N=C(N)c1ccc2cc(OC(=O)c3ccc(CNC(=O)c4cccnc4)o3)ccc2c1 [compound 16]	1000	1000	400	400	400	300	100	100	97	–
N=C(N)c1ccc2cc(OC(=O)c3ccc(CNC(=O)c4cnc5ccccc5c4)o3)ccc2c1 [compound 17]	800	2000	1000	700	500	2000	100	100	93	–
N=C(N)c1ccc2cc(OC(=O)c3ccc(CNC(=O)CCOCc4ccccc4)o3)ccc2c1 [compound 18]	900	500	500	500	300	3000	100	100	97	–
N=C(N)c1ccc2cc(OC(=O)c3ccc(CNC(=O)OCc4ccccc4)o3)ccc2c1 [compound 19]	200	300	700	200	200	300	97	97	93	–
CN(C)Cc1ccc(C(=O)Oc2ccc3cc(C(=N)N)ccc3c2)o1 [compound 23]	500	2000	3000	4000	3000	2000	100	95	76	–
N=C(N)c1ccc2cc(OC(=O)c3ccc(CN4CCOCC4)o3)ccc2c1 [compound 25]	700	600	2000	–	1000	2000	100	98	82	3000
N=C(N)c1ccc2cc(OC(=O)c3ccc(CN4CCN(Cc5ccccc5)CC4)o3)ccc2c1 [compound 26]	300	600	3000	2000	500	4000	100	98	93	–
